Source: US20150157672A1, “KITS AND METHODS FOR SUSTAINED WEIGHT LOSS” (PHYTOLOGY LABS, INC., priority 2013, published 2015)
Read-outs that look alike come from different tables or passages of the source.

What was measured:
[1] = FIG. 2; cited from earlier work
[2] = Estimated effect of first, second and third treatment phase (Tables 1-3); type: in vivo, human
From the text: In some embodiments the first treatment phase may comprise administering at least one weight loss agent. In some embodiments, the at least one weight loss agent is a protein kinase A modulator, a neurotransmitter modulator or a combination thereof. In some embodiments, the weight loss agents administered during this treatment phase are selected from Camellia sinensis, caffeine, Capsicum sp., 5-hydroxytryptophan, and any combination thereof. In yet other embodiments the first treatment phase comprises administering Camellia sinensis, caffeine, Capsicum sp., 5-hydroxytryptophan, or any combination thereof. […] In some embodiments, the second treatment phase comprises administering at least one weight loss agent. In some embodiments, the at least one weight loss agent is a macro nutrient absorption modulator, a neurotransmitter modulator or a combination thereof. In some embodiments, the at least one weight loss agent is selected from Phaseolus vulgaris, […] gabonensis, Rhodiola rosea, and any combination thereof. In yet other embodiments the second treatment phase comprises administering Phaseolus vulgaris, […] gabonensis, Rhodiola rosea, or any combination thereof. […] In some embodiments, the third treatment phase comprises administering at least one weight loss agent. In some embodiments, the at least one weight loss agent is a Protein Kinase A modulator, Adenosine Mono-Phosphate activated Kinase (AMPk) modulator, or a combination thereof. In some embodiments, the at least one weight loss agent is selected from Coffea canefora, Coleus forskholii, yohimbine, caffeine, and any combination thereof. In yet other embodiments, the third treatment phase comprises administering Coffea canefora, Coleus forskholii, yohimbine, caffeine, or any combination thereof.

[3] = Rough point estimate of effect size by weight loss agent from published studies (Table 7); type: in vivo, human
Experimental: A rough point estimate of the effect size by weight loss agent was developed using data from published studies.
The ΔWt. LossMAX for Garcinia sp. from 1.0 kg to 3.0 kg assumes the dose response curve model is valid, which has not been proven. The dosage of Phaseolus vulgaris is measured in α-amylase blocking units. Coffea canefora is administered as Syetol®, a commercial preparation most commonly used in the studies (400 mg). Crocus sativus dosages for depression are much lower 30 mg and have been shown for extracts of both stigma & leaf.

[4] = cited from earlier work; for thermogenic response: in man
[5] = when ingested; cited from earlier work
[6] = Kinetic decay model of weight loss fitted to published clinical data (efficacy benchmarks); type: in vivo, human; conditions: for ΔWt. LossMAX: model parameter; for Decay Coeff. (−b): model Weight (t)=Weight Plateau+ΔWt. LossMAX e^-bt, across studies and doses
From the text: In order to better understand the underlying dynamics of weight loss agents over time, several weight loss agents were selected to study and attempt to model. These included a wide range of weight loss agents including dietary supplements (C. sinensis & alginate), OTC drugs (orlistat), and Rx drugs (sibutramine, Qysmia®). Over time, more may be added to the database to test hypotheses and to improve the modeling of the underlying weight loss dynamics.
All agents followed the same basic kinetic model: Weight (t)=Weight Plateau+ΔWt. LossMAX e-^bt, where Weight Plateau=Starting Weight−ΔWt. LossMAX. Where t=time, b=decay coefficient, and ΔWt. LossMAX=maximum amount of weight lost, which appears to be a function of weight loss agent, dosage, and patient population. […] It does appear to vary by weight loss agent. The variation within a weight loss agent appears to be fairly low. It is critical to note that these are only the initial observations based upon estimating the results using published data. The raw data, more observations, and a more sophisticated statistical analysis are needed in order to make more definitive claims. The fact that all weight loss agents seem to follow the same relationship supports the adaptation hypothesis. […] All of the observed data fit the model well. The decay coefficient was estimated to be 0.1±0.02, and all the studies except Rossner fell within one standard deviation of this mean. The decay coefficient for the Rossner study was 0.05, which is slightly more than two standard deviations from the mean. However, it is important to put this in context. The maximum difference between the model using 0.05 as the decay coefficient and 0.10 is about 2.0 kg, which falls within the observation error range. It is unclear whether this difference was due to random chance, to variation caused by the inherent error arising from estimating the data from the published graphs, or to something more fundamental. […] LossMAX for diabetic vs non-diabetic patients on orlistat. […] However, given the number of studies analyzed, it is premature to draw any definitive conclusions beyond that these are interesting data points from which a hypothesis can be generated. All of the observed data for Qysmia fit the model well, see FIG. 8. The decay coefficient was estimated to be 0.08±0.01. The decay coefficient was very consistent across all the studies and doses. Given these were registration studies, the larger sample sizes may have allowed for better resolution. The observed data for sibutramine also fit the model well. Since there were more studies, it was impractical to show them all in a graph. The decay coefficient was estimated to be 0.14±0.04. Sibutramine offered the widest number of conditions studied, and as expected, there was more variability in the decay coefficient.

α2-adrenergic receptor = conditions: functions as an antagonist; cited from earlier work
α1-receptor = conditions: functions as an antagonist; cited from earlier work
[7] = Systematic review and meta-analysis of randomized clinical trials of Garcinia extract (HCA) with dose-response curve; type: in vivo, human; conditions: curve ΔWt=ΔWtmax(1−e^−b*dosage)
From the text: A systematic review and meta-analysis to examine the efficacy of Garcinia extract, hydroxycitric acid (HCA) as a weight reduction agent, using data from randomized clinical trials, found a small, statistically significant difference in weight loss of -0.9 kg between HCA and placebo. A nonlinear, significant (P<0.05) correlation between the dosage of HCA and body weight loss seems to exist. This relationship follows a curve ΔWt=Δ[…]) which is consistent with a first order ligand binding kinetics. […] However, HCA quickly approaches its asymptotic maximum by 2800 mg/day.

CC(C)(N)Cc1ccccc1 [Phentermine]
time to reduction or complete cessation of weight loss [1]: about 4 weeks

N[C@@H](Cc1c[nH]c2ccc(O)cc12)C(=O)O [5-hydroxytryptophan]
Estimated kcal/day reduction ([2]; first treatment phase): 240 kcal/day | Estimated ΔWt. LossMAX ([2]; first treatment phase): 1.5 to 2.5 kg | Kcal/d ([3]; Dosage 50-900 mg oral): 400 kcal/day | Kg./wk ([3]; Dosage 50-900 mg oral): 0.2 Kg./wk | ΔWt. LossMAX ([3]; Dosage 50-900 mg oral): 1.5 to 2.5 kg | reduction in energy intake ([4]; spontaneous reduction of calorie consumption): about 243 Kcal/day | adverse effects [5]: nausea and diarrhea

CCCCCCCCCCC[C@@H](C[C@@H]1OC(=O)[C@H]1CCCCCC)OC(=O)[C@H](CC(C)C)NC=O [Orlistat, orlistat]
ΔWt. LossMAX ([6]; Dosage 120 mg (diabetics)): 4.3 kg | ΔWt. LossMAX ([6]; Dosage 120 mg): 7.1 kg | decay coefficient ([6]; Rossner study): 0.05 | Decay Coeff. (−b) [6]: 0.11 ± 0.02 | Decay Coeff. (−b) ([6]; listed as orlistat): 0.1±0.02

COC(=O)[C@@H]1[C@H]2C[C@H]3c4[nH]c5ccccc5c4CCN3C[C@@H]2CC[C@@H]1O [yohimbine]
Estimated kg/wk reduction ([2]; third treatment phase): 0.1 kg/wk | Estimated ΔWt. LossMAX ([2]; third treatment phase): 1.5 kg | Kg./wk ([3]; Dosage 20 mg/day): 0-0.16 Kg./wk | ΔWt. LossMAX ([3]; Dosage 20 mg/day): 0 to 1.5 kg | affinity for the α2-adrenergic receptor (α2-adrenergic receptor): high affinity | affinity for the α1-receptor (α1-receptor): moderate affinity

O=C(O)CC(O)(C(=O)O)C(O)C(=O)O (centres unmarked) [HCA, hydroxycitric acid]
ΔWtmax [7]: about 3.5 kg

CC(C)CC(N(C)C)C1(c2ccc(Cl)cc2)CCC1 (centres unmarked) [Sibutramine, sibutramine]
ΔWt. LossMAX ([6]; Dosage 1 mg): 3.7 kg | ΔWt. LossMAX ([6]; Dosage 5 mg): 4.5 kg | ΔWt. LossMAX ([6]; Dosage 10 mg): 8.4 kg | ΔWt. LossMAX ([6]; Dosage 15 mg): 7.3 kg | ΔWt. LossMAX ([6]; Dosage 20 mg): 8.5 kg | ΔWt. LossMAX ([6]; Dosage 30 mg): 9.1 kg | Decay Coeff. (−b) [6]: 0.14 ± 0.04 | Decay Coeff. (−b) ([6]; listed as sibutramine): 0.14±0.04

Cn1c(=O)c2c(ncn2C)n(C)c1=O [caffeine]
Estimated kcal/day reduction ([2]; first treatment phase): 60 kcal/day | Estimated ΔWt. LossMAX ([2]; first treatment phase): 0.5 kg | Estimated kg/wk reduction ([2]; third treatment phase): 0.05 kg/wk | Estimated ΔWt. LossMAX ([2]; third treatment phase): 0.5 kg | Kcal/d ([3]; Dosage 500-700 mg/day): 50 to 75 kcal/day | raise of energy expenditure ([4]; 600 mg/day dose): 63 kcal/day | thermogenic response ([4]; dose 100 mg): 4-5% | thermogenic response ([4]; dose 200-250 mg): 10-12% | thermogenic response ([4]; dose 400-450 mg): 16% | minimum (or near minimum) dose with demonstrable stimulatory effect on resting metabolic rate (RMR) ([4]; in vivo): 100 mg
